In publication PMC7413254 (Nature Communications, 2020):
Read-outs that look alike come from different tables or passages of the source.

Key:
Conditions in all cases: trans-stimulation, solute 2 mM
non-expressing oocytes = assay type: cell-based, Xenopus laevis
In short: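 Oocytes (ten per treatment, ≥4 independent frogs/days) were preloaded by injecting VF-6 in 25 nL ND96 at pH 5.0, 5.5, 6.0 or 7.0, or Na^+-free choline buffer, then uptake run 1.5 h, 27.5 °C, ND96 pH 5.5 by default. Internal concentrations assumed ~400 nL oocyte volume.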

PfCRT^3D7 = PfCRT^3D7 (Plasmodium falciparum, UniProt Q8IBZ9); assay: cell-based; assay type: cell-based
In short: (§1)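 Transport measured in Xenopus oocytes expressing the transporters, 1.5 h at 27.5 °C in ND96 pH 5.5 unless noted. For trans-stimulation, VF-6 injected in 25 nL ND96 at pH 5.0–7.0 or Na^+-free (choline) buffer; intracellular levels based on ~400 nL oocyte volume. Ten oocytes per treatment, ≥4 experiments.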

PfCRT^Ecu1110 = PfCRT^Ecu1110 (Plasmodium falciparum, UniProt Q9N623, A220S/I356L/K76T/N326D); assay: cell-based; assay type: cell-based
In short: as §1

PfCRT^Dd2 = PfCRT^Dd2 (Plasmodium falciparum, UniProt Q9N623, A220S/I356T/K76T/M74I/N326S/N75E/Q271E/R371I); assay: cell-based; assay type: cell-based
In short: as §1

PfNT1 = target: T1, PfNT1 (Plasmodium falciparum, UniProt Q8IDM6); assay: cell-based; assay type: cell-based
T1 construct: expressed in transfected cells; host or cells: Xenopus laevis oocytes (stage V-VI), cRNA-injected
In short: as §1

Sequence of PfCRT^Dd2 (Q9N623 whole entry A220S/I356T/K76T/M74I/N326S/N75E/Q271E/R371I): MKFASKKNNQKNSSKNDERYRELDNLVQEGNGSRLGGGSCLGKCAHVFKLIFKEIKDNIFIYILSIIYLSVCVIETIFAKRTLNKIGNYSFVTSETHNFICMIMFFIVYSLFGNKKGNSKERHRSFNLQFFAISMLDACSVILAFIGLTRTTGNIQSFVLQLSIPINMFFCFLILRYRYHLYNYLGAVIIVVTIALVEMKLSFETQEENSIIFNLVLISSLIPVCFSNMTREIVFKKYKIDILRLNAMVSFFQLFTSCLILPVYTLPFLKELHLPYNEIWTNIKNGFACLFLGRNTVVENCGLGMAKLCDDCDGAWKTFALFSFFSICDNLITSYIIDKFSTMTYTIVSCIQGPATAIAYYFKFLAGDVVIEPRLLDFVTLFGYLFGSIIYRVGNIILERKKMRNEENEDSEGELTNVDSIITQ
Sequence of PfCRT^Ecu1110 (Q9N623 whole entry A220S/I356L/K76T/N326D): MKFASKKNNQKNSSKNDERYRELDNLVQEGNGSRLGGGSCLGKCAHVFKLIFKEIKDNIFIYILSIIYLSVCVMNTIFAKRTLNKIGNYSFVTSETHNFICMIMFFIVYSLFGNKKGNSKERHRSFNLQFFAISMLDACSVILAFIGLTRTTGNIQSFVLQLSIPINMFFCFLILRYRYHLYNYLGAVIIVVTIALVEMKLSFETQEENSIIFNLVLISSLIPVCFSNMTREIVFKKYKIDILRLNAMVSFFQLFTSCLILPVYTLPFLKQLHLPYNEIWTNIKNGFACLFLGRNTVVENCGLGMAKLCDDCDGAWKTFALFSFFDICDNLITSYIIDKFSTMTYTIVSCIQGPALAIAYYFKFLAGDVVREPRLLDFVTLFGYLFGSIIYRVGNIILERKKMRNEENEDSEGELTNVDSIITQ
Sequence of PfCRT^3D7 (Q8IBZ9 59-398): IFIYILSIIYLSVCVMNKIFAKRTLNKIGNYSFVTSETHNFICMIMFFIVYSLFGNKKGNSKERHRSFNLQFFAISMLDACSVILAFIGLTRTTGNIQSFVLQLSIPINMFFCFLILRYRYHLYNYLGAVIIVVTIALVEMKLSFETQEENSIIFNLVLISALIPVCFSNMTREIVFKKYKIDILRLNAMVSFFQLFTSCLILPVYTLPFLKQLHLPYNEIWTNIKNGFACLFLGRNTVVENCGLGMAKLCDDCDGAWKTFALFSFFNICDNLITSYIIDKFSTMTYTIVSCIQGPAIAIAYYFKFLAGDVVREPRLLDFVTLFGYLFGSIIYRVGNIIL
T1 sequence (Q8IDM6 whole entry): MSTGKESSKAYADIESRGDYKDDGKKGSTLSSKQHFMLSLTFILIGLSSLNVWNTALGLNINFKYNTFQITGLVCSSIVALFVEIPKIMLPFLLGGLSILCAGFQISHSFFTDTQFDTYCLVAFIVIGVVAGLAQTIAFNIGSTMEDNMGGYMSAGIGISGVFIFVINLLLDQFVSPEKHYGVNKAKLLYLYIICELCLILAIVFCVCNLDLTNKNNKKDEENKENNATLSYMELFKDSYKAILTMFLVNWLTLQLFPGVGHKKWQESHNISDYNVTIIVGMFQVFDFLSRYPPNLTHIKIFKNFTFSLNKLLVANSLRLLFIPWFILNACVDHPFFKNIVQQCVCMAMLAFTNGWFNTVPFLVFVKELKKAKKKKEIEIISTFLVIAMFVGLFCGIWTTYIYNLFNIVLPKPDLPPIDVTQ

For DPVN [VF-6-derived peptide], the “[3H]CQ transport, non-expressing oocytes” value (non-expressing oocytes; Experiment 1) was 2.53 % PfCRTDd2 control, the “[3H]CQ transport, non-expressing oocytes” value (non-expressing oocytes; Experiment 2) was 2.64 % PfCRTDd2 control and the “[3H]CQ transport, non-expressing oocytes” value (non-expressing oocytes; Experiment 3) was 2.41 % PfCRTDd2 control. For the same substance, the “[3H]CQ transport, non-expressing oocytes” value (non-expressing oocytes; Experiment 4) was 2.56 % PfCRTDd2 control, the “[3H]CQ transport, PfCRT3D7” value (PfCRT^3D7; Experiment 1) was 12.64 % PfCRTDd2 control and the “[3H]CQ transport, PfCRT3D7” value (PfCRT^3D7; Experiment 2) was 13.46 % PfCRTDd2 control. For the same substance, the “[3H]CQ transport, PfCRT3D7” value (PfCRT^3D7; Experiment 3) was 12.14 % PfCRTDd2 control, the “[3H]CQ transport, PfCRT3D7” value (PfCRT^3D7; Experiment 4) was 11.36 % PfCRTDd2 control and the “[3H]CQ transport, PfCRTEcu1110” value (PfCRT^Ecu1110; Experiment 1) was 32.63 % PfCRTDd2 control. For the same substance, the “[3H]CQ transport, PfCRTEcu1110” value (PfCRT^Ecu1110; Experiment 2) was 30.52 % PfCRTDd2 control, the “[3H]CQ transport, PfCRTEcu1110” value (PfCRT^Ecu1110; Experiment 3) was 37.36 % PfCRTDd2 control and the “[3H]CQ transport, PfCRTEcu1110” value (PfCRT^Ecu1110; Experiment 4) was 30.52 % PfCRTDd2 control. For the same substance, the “[3H]CQ transport, PfCRTDd2” value (PfCRT^Dd2; Experiment 1) was 100.43 % PfCRTDd2 control, the “[3H]CQ transport, PfCRTDd2” value (PfCRT^Dd2; Experiment 2) was 99.77 % PfCRTDd2 control and the “[3H]CQ transport, PfCRTDd2” value (PfCRT^Dd2; Experiment 3) was 98.92 % PfCRTDd2 control. For the same substance, the “[3H]CQ transport, PfCRTDd2” value (PfCRT^Dd2; Experiment 4) was 101.43 % PfCRTDd2 control, the “[3H]CQ transport, PfNT1” value (PfNT1; Experiment 1) was 3.52 % PfCRTDd2 control and the “[3H]CQ transport, PfNT1” value (PfNT1; Experiment 2) was 3.38 % PfCRTDd2 control. The “[3H]CQ transport, PfNT1” value (PfNT1; Experiment 3) was 3.26 % PfCRTDd2 control and the “[3H]CQ transport, PfNT1” value (PfNT1; Experiment 4) was 3.33 % PfCRTDd2 control.
